Results published in PMC4298654, “In vivo formation of N-acyl-fumonisin B1” (Mycotoxin Research, 2014).

Assay: In vivo formation of NAFB1 and NAHFB1 in rat kidney and liver (HPLC-ESI-MS/MS)
Set-up: N-acyl-derivative in tissue sample, analysis a / N-acyl-derivative in tissue sample, analysis b / N-acyl-derivative in tissue sample, mean: unit not given here
Details: 5 days
Text: The study protocol was approved by the Institutional Animal Care and Use Committee, Richard B. Russell Agricultural Research Center, Athens, GA. Male Sprague–Dawley rats (Harlan Industries, Indianapolis, IN, USA), 7 weeks of age at receipt, were individually housed in stainless steel, wire mesh cages in an environmentally controlled room having a 12-h light/dark cycle. Food (2019 Global Rodent Diet, Teklad, Madison, WI, USA) and fresh tap water were provided ad libitum. After a 1 week acclimation period, the animals were randomly assigned to five groups (n = 2/group) having mean weights of 215 to 216 g (weight range of all animals, 211 to 220 g). For five consecutive days, they were observed, weighed, and given an intraperitoneal injection (ip) of 0 (vehicle), 0.5, 1.0, or 2.0 mg/kg body weight FB1 (provided by R. Eppley, US FDA), 1.0 mg/kg body weight HFB1 (positive control) (Voss et al. [2009]), or vehicle (0.9 % physiological saline). These doses corresponded to 0.69, 1.38, and 2.77 μmol FB1/kg body weight and 2.47 μmol/kg body weight HFB1 per day. In order to compare the effects of FB1 and HFB1, dosages will be expressed as molar concentrations and, on this basis, the high dose of FB1 is roughly equivalent to that of the positive control dose of HFB1. Dosing solutions were sterile filtered and administered at a volume rate of 10 ml/kg body weight. The animals were fasted overnight prior to administration of the final dose. The rats were euthanized (CO2 inhalation and exsanguination) 60 to 90 min following the final dose administration and examined by necropsy. The kidney and liver specimens were fixed in 10 % neutral buffered formalin, processed, and microscopically evaluated without knowledge of the animal’s identity or treatment group. Three representative liver and kidney specimens (100 mg each) were also collected, immediately frozen, and stored (−80 °C) until processed, at which time the tissues were thawed and homogenized in distilled/deionized water (1 ml water/100 mg tissue). The homogenates were lyophilized before they were shipped by overnight courier for the analysis of fumonisin metabolites and sphingolipids.
Lyophilized liver and kidney tissues (100 mg wet weight equivalents) were processed for the quantification of FB1, HFB1, NAFB1, NAHFB1, and sphingolipids. Preparation of the tissue samples was performed according to a previously published method (Harrer et al. [2013]). For the quantification of FB1 and HFB1, a d6-labeled derivative of FB1 (FB1-d6) was used as the internal standard. Synthetic derivatives with a heptadecanoic fatty acid (C17:0) residue were used as internal standards for the quantification of N-acyl-fumonisins and ceramides (N-C17:0-FB1, N-C17:0-HFB1, and N-C17:0-ceramide). The sphingoid bases and their phosphate derivatives were quantified using synthetic derivatives with a C17-acyl-backbone: sphingosine (C17:1), sphingosine-1-phosphate (C17:1), sphinganine (C17:0), sphinganine-1-phosphate (C17:0) as internal standards. The standards were dissolved in methanol:chloroform (2:1, v/v) and then mixed with the tissue samples. The samples spiked with internal standard were kept at room temperature for 30 min before being processed further. The internal standard-spiked samples were first extracted with ethyl acetate, isopropanol, and water (60:30:10, v/v/v) and a second time using methanol, chloroform, and water (60:30:10, v/v/v). The extracts were combined, the solvents removed by evaporation, and the dried samples stored at−80 °C till analyzed.
For the analysis, the samples were reconstituted in a mixture of water, methanol, and tetrahydrofurane (60:24:16, v/v/v). The NAFB1 and NAHFB1 derivatives having the following fatty acyl chain lengths were quantified by HPLC-MS/MS: C16:0, C18:0, C20:0, C22:0, C24:0, C26:0. Furthermore, we also quantified the unsaturated derivatives C24:1 and C26:1. The results are given as the sum of all N-acyl derivatives of FB1 or HFB1. […]

[1] = Kidney, treatment FB1 0,5 mg/kg BW ip
[2] = Kidney, treatment FB1 1 mg/kg BW ip
[3] = Kidney, treatment FB1 2 mg/kg BW ip
[4] = Kidney, treatment HFB1 1 mg/kg BW ip
[5] = Liver, treatment FB1 0,5 mg/kg BW ip
[6] = Liver, treatment FB1 1 mg/kg BW ip
[7] = Liver, treatment FB1 2 mg/kg BW ip
[8] = Liver, treatment HFB1 1 mg/kg BW ip

SMILES	N-acyl-derivative in tissue sample, analysis a [1]	N-acyl-derivative in tissue sample, analysis b [1]	N-acyl-derivative in tissue sample, mean [1]	N-acyl-derivative in tissue sample, analysis a [2]	N-acyl-derivative in tissue sample, analysis b [2]	N-acyl-derivative in tissue sample, mean [2]	N-acyl-derivative in tissue sample, analysis a [3]	N-acyl-derivative in tissue sample, analysis b [3]	N-acyl-derivative in tissue sample, mean [3]	N-acyl-derivative in tissue sample, analysis a [4]	N-acyl-derivative in tissue sample, analysis b [4]	N-acyl-derivative in tissue sample, mean [4]	N-acyl-derivative in tissue sample, analysis a [5]	N-acyl-derivative in tissue sample, analysis b [5]	N-acyl-derivative in tissue sample, mean [5]	N-acyl-derivative in tissue sample, analysis a [6]	N-acyl-derivative in tissue sample, analysis b [6]	N-acyl-derivative in tissue sample, mean [6]	N-acyl-derivative in tissue sample, analysis a [7]	N-acyl-derivative in tissue sample, analysis b [7]	also measured
CCCCCCCCCCCCCCCC(=O)N[C@@H](C)[C@@H](O)C[C@H](O)CCCC[C@@H](O)C[C@H](C)C[C@H](O)[C@H](O)[C@H](C)CCCC [HFB1C16:0]	0,0	0,2	0,1	0,2	0,1	0,2	0,3	0,5	0,4	22,7	37,3	30,0	0,3	0,4	0,3	0,0	0,4	0,2	0,0	0,3	N-acyl-derivative in tissue sample, mean [7]: 0,1; N-acyl-derivative in tissue sample, analysis a [8]: 34,9; N-acyl-derivative in tissue sample, analysis b [8]: 44,3; N-acyl-derivative in tissue sample, mean [8]: 39,6
CCCCCCCCCCCCCCCCCC(=O)N[C@@H](C)[C@@H](O)C[C@H](O)CCCC[C@@H](O)C[C@H](C)C[C@H](O)[C@H](O)[C@H](C)CCCC [HFB1C18:0]	0,1	0,2	0,2	0,1	0,0	0,1	0,0	0,1	0,1	2,6	1,8	2,2	0,3	0,1	0,2	0,0	0,0	0,0	0,0	0,0	N-acyl-derivative in tissue sample, mean [7]: 0,0; N-acyl-derivative in tissue sample, analysis a [8]: 1,5; N-acyl-derivative in tissue sample, analysis b [8]: 2,0; N-acyl-derivative in tissue sample, mean [8]: 1,8
CCCCCCCCCCCCCCCCCCCC(=O)N[C@@H](C)[C@@H](O)C[C@H](O)CCCC[C@@H](O)C[C@H](C)C[C@H](O)[C@H](O)[C@H](C)CCCC [HFB1C20:0]	0,0	0,0	0,0	0,0	0,1	0,1	0,0	0,0	0,0	3,1	0,6	1,8	0,0	0,2	0,1	0,2	0,1	0,2	0,0	0,0	N-acyl-derivative in tissue sample, mean [7]: 0,0; N-acyl-derivative in tissue sample, analysis a [8]: 8,9; N-acyl-derivative in tissue sample, analysis b [8]: 13,1; N-acyl-derivative in tissue sample, mean [8]: 11,0
